Assay results published in patent US12410179B2, “Modulators of TNF alpha activity and uses thereof” (RayThera, Inc., priority 2023, dated 2025).

Target: TNFα (Homo sapiens, UniProt P01375)
Assay: HEK-Blue hTNFα reporter assay
Format: cell-based
Parameters: purchased R&D biosystem (R&D Systems) 210-TA-020/CF
Settings: HEK-Blue hTNFα reporter cells, SEAP readout; read-out: IC50 Range
In short: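 IC50 from 4-parameter regression of % inhibition, with OD620 of secreted SEAP (QUANTI-Blue, 1 h) referenced to cells with and without hTNFα. HEK-Blue TNFα reporter cells were exposed 24 h to compound premixed 1 h with hTNFα ([…]).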

TNFα, sequence (P01375 77-233 limits assumed): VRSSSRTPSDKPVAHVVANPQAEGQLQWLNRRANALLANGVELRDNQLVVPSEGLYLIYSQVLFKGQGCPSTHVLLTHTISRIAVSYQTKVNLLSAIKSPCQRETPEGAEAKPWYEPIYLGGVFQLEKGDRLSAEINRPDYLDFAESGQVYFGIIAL

Structure (SMILES) | IC50 [µM]
CN1C(=O)c2cccc(OC(F)F)c2[C@H]2C[C@@H]1c1nn3ccc(-c4cnc(N5CCC(O)CC5)nc4)cc3c12 [Example 156] | < 0.025
CN1C(=O)c2cccc(OC(F)F)c2[C@H]2C[C@@H]1c1nn3ccc(-c4cnc(N5CCOCC5)nc4)cc3c12 [Example 158] | < 0.025
CN1C(=O)c2ccnc(OC(F)F)c2[C@H]2C[C@@H]1c1nn3cc(F)c(-c4ccc(P(C)(C)=O)c(F)c4)cc3c12 [Example 159] | < 0.025
CN1C(=O)c2cccc(OC(F)F)c2[C@H]2C[C@@H]1c1nn3ccc(-c4cnc([C@]5(O)C[C@@](C)(C(N)=O)C5)nc4)cc3c12 [Example 160] | < 0.025
CN1C(=O)c2cccc(OC(F)F)c2[C@H]2C[C@@H]1c1nn3cc(F)c(-c4ccc(P5(=O)CCOCC5)nc4)cc3c12 [Example 161] | < 0.025
O=C1N[C@@H]2C[C@H](c3c(OC(F)F)cccc31)c1c2nn2ccc(-c3cnc(N4CCOCC4)nc3)cc12 [Example 162] | < 0.025
C[C@@](O)(CC#N)c1ncc(-c2ccn3nc4c(c3c2)[C@@H]2C[C@H]4NC(=O)c3cccc(OC(F)F)c32)cn1 [Example 163] | < 0.025
C[C@](O)(CC#N)c1ncc(-c2ccn3nc4c(c3c2)[C@@H]2C[C@H]4NC(=O)c3cccc(OC(F)F)c32)cn1 [Example 164] | < 0.025
CN1C(=O)c2cccc(OC(F)F)c2[C@H]2C[C@@H]1c1nn3ccc(-c4ccc([C@]5(N)C[C@@](C)(C(=O)O)C5)nc4)cc3c12 [Example 165] | < 0.025
CN1C(=O)c2cccc(OC(F)F)c2[C@H]2C[C@@H]1c1nn3cc(F)c(-c4ncc(C5(O)COC5)cn4)cc3c12 [Example 166] | < 0.025
CN1C(=O)c2cccc(OC(F)F)c2[C@H]2C[C@@H]1c1nn3ccc(-c4cnc([C@]5(N)C[C@](C)(C#N)C5)nc4)cc3c12 [Example 167] | < 0.025
CN1C(=O)c2cccc(OC(F)F)c2[C@H]2C[C@@H]1c1nn3ccc(-c4cnc([C@]5(N)C[C@@H](O)C5)c(F)c4)cc3c12 [Example 168] | < 0.025
CN1C(=O)c2cccc(OC(F)F)c2[C@H]2C[C@@H]1c1nn3ccc(-c4cnc([C@]5(N)C[C@H](O)C5)c(F)c4)cc3c12 [Example 169] | < 0.025
[2H]C([2H])([2H])N1C(=O)c2cccc(OC(F)F)c2[C@H]2C[C@@H]1c1nn3ccc(-c4cnc([C@]5(N)C[C@@H](C#N)C5)nc4)cc3c12 [Example 170] | < 0.025
CN1C(=O)c2cccc(OC(F)F)c2[C@H]2C[C@@H]1c1nn3ccc(-c4cnc([C@@H](O)CN5CCC5)nc4)cc3c12 [Example 171] | 0.025 to 0.1
CN1C(=O)c2cccc(OC(F)F)c2[C@H]2C[C@@H]1c1nn3ccc(-c4cnc([C@H](O)CN5CCC5)nc4)cc3c12 [Example 172] | 0.1 to 1
C[C@]1(C#N)C[C@](N)(c2ncc(-c3ccn4nc5c(c4n3)[C@@H]3C[C@H]5NC(=O)c4cccc(OC(F)F)c43)cc2F)C1 [Example 173] | < 0.025
C[C@]1(C#N)C[C@](N)(c2ncc(-c3nc4c5c(nn4cc3F)[C@H]3C[C@@H]5c4c(OC(F)F)cccc4C(=O)N3)cc2F)C1 [Example 174] | < 0.025
[2H]C([2H])([2H])N1C(=O)c2cccc(OC(F)F)c2[C@H]2C[C@@H]1c1nn3cnc(-c4cnc([C@]5(N)C[C@@](C)(C#N)C5)c(F)c4)cc3c12 [Example 175] | < 0.025
[2H]C([2H])([2H])N1C(=O)c2cccc(OC(F)F)c2[C@H]2C[C@@H]1c1nn3ccc(-c4cnc([C@]5(N)C[C@@H](C#N)C5)nc4)nc3c12 [Example 176] | < 0.025
[2H]C([2H])([2H])N1C(=O)c2cccc(OC(F)F)c2[C@H]2C[C@@H]1c1nn3ccc(-c4cnc(C5(N)COC5)nc4)nc3c12 [Example 177] | 0.025 to 0.1
[2H]C([2H])([2H])N1C(=O)c2cccc(OC(F)F)c2[C@H]2C[C@@H]1c1nn3cc(F)c(-c4cnc(C5(N)COC5)nc4)nc3c12 [Example 178] | < 0.025
[2H]C([2H])([2H])N1C(=O)c2cccc(OC(F)F)c2[C@H]2C[C@@H]1c1nn3ccc(-c4cnc([C@]5(N)C[C@H](C#N)C5)nc4)nc3c12 [Example 179] | < 0.025
[2H]C([2H])([2H])N1C(=O)c2cccc(OC(F)F)c2[C@H]2C[C@@H]1c1nn3ccc(-c4cnc([C@]5(O)C[C@@](C)(N)C5)nc4)nc3c12 [Example 180] | 0.1 to 1
[2H]C([2H])([2H])N1C(=O)c2cccc(OC(F)F)c2[C@H]2C[C@@H]1c1nn3cc(C)c(-c4cnc(C5(N)CCC5)nc4)cc3c12 [Example 181] | < 0.025
[2H]C([2H])([2H])N1C(=O)c2cccc(OC(F)F)c2[C@H]2C[C@@H]1c1nn3ccc(-c4ccc(C5(N)CCC5)nc4)nc3c12 [Example 182] | < 0.025
[2H]C([2H])([2H])N1C(=O)c2cccc(OC(F)F)c2[C@H]2C[C@@H]1c1nn3cc(F)c(-c4cnc([C@]5(N)C[C@](O)(C(F)(F)F)C5)nc4)nc3c12 [Example 183] | < 0.025

Structure (SMILES) | IC50 [µM]
NC1(c2ncc(-c3ccn4nc5c(c4c3)[C@@H]3C[C@H]5NC(=O)c4cccc(OC(F)F)c43)cn2)CCC1 [Example 184] | < 0.025
[2H]C([2H])([2H])N1C(=O)c2cccc(OC(F)F)c2[C@H]2C[C@@H]1c1nn3cc(F)c(-c4cnc([C@]5(O)C[C@@](C)(N)C5)nc4)nc3c12 [Example 185] | 0.025 to 0.1
NC1(c2ccc(-c3ccn4nc5c(c4n3)[C@@H]3C[C@H]5NC(=O)c4cccc(OC(F)F)c43)cn2)CCC1 [Example 186] | 0.025 to 0.1
[2H]C([2H])([2H])N1C(=O)c2cccc(OC(F)F)c2[C@H]2C[C@@H]1c1nn3ccc(-c4cnc([C@]5(N)C[C@@H](O)C5)nc4)cc3c12 [Example 187] | < 0.025
[2H]C([2H])([2H])N1C(=O)c2cccc(OC(F)F)c2[C@H]2C[C@@H]1c1nn3cc(F)c(-c4cnc([C@]5(N)C[C@@](C)(O)C5)c(F)c4)nc3c12 [Example 188] | < 0.025
[2H]C([2H])([2H])N1C(=O)c2cccc(OC(F)F)c2[C@H]2C[C@@H]1c1nn3ccc(-c4cnc([C@]5(N)C[C@@](C)(O)C5)c(F)c4)nc3c12 [Example 189] | < 0.025
C[C@]1(C#N)C[C@](N)(c2ncc(-c3ccn4nc5c(c4c3)[C@@H]3C[C@H]5NC(=O)c4cccc(OC(F)F)c43)cc2F)C1 [Example 190] | < 0.025
C[C@@](O)(CC#N)c1ncc(-c2cc3c4c(nn3cc2F)[C@H]2C[C@@H]4c3c(OC(F)F)cccc3C(=O)N2)cn1 [Example 191] | < 0.025
C[C@](O)(CC#N)c1ncc(-c2cc3c4c(nn3cc2F)[C@H]2C[C@@H]4c3c(OC(F)F)cccc3C(=O)N2)cn1 [Example 192] | < 0.025
[2H]C([2H])([2H])N1C(=O)c2cccc(OC(F)F)c2[C@H]2C[C@@H]1c1nn3ccc(-c4cnc([C@]5(N)CCOC5)nc4)nc3c12 [Example 193] | < 0.025
[2H]C([2H])([2H])N1C(=O)c2cccc(OC(F)F)c2[C@H]2C[C@@H]1c1nn3ccc(-c4cnc([C@@]5(N)CCOC5)nc4)nc3c12 [Example 194] | 0.025 to 0.1
C[C@]1(C#N)C[C@](N)(c2ncc(-c3ccn4nc5c(c4c3)[C@@H]3C[C@H]5NC(=O)c4cccc(OC(F)F)c43)cn2)C1 [Example 195] | < 0.025
C[C@]1(O)C[C@](N)(c2ncc(-c3ccn4nc5c(c4c3)[C@@H]3C[C@H]5NC(=O)c4cccc(OC(F)F)c43)cn2)C1 [Example 197] | < 0.025
Cc1cc(P(C)(C)=O)c(F)cc1-c1ccn2nc3c(c2c1)[C@@H]1C[C@H]3NC(=O)c2cccc(OC(F)F)c21 [Example 198] | < 0.025
[2H]C([2H])([2H])N1C(=O)c2cccc(OC(F)F)c2[C@H]2C[C@@H]1c1nn3cc(F)c(-c4cnc(C5(N)CCC5)cn4)cc3c12 [Example 199] | < 0.025
[2H]C([2H])([2H])N1C(=O)c2cccc(OC(F)F)c2[C@H]2C[C@@H]1c1nn3cc(F)c(-c4cnc([C@]5(N)C[C@@](C)(C#N)C5)cn4)cc3c12 [Example 200] | < 0.025
[2H]C([2H])([2H])N1C(=O)c2cccc(OC(F)F)c2[C@H]2C[C@@H]1c1nn3cc(C)c(-c4cnc([C@]5(N)C[C@@](C)(O)C5)nc4)cc3c12 [Example 201] | < 0.025
O=C1N[C@@H]2C[C@H](c3c(OC(F)F)cccc31)c1c2nn2ccc(-c3ccnc(OC4COC4)c3)cc12 [Example 202] | < 0.025
NC1(c2ccc(-c3ccn4nc5c(c4c3)[C@@H]3C[C@H]5NC(=O)c4cccc(OC(F)F)c43)cn2)CCC1 [Example 203] | < 0.025
[2H]C([2H])([2H])N1C(=O)c2cccc(OC(F)F)c2[C@H]2C[C@@H]1c1nn3ccc(-c4cnc([C@]5(N)C[C@@H](O)C5)nc4)nc3c12 [Example 204] | 0.025 to 0.1
[2H]C([2H])([2H])N1C(=O)c2cccc(OC(F)F)c2[C@H]2C[C@@H]1c1nn3cc(F)c(-c4cnc([C@]5(N)C[C@@H](O)C5)nc4)nc3c12 [Example 205] | 0.025 to 0.1
[2H]C([2H])([2H])N1C(=O)c2cccc(OC(F)F)c2[C@H]2C[C@@H]1c1nn3cc(F)c(-c4cnc(C5(N)COC5)nc4)cc3c12 [Example 206] | < 0.025
[2H]C([2H])([2H])N1C(=O)c2cccc(OC(F)F)c2[C@H]2C[C@@H]1c1nn3ccc(-c4cnc(C5(N)CCC5)cn4)cc3c12 [Example 207] | < 0.025
[2H]C([2H])([2H])N1C(=O)c2cccc(OC(F)F)c2[C@H]2C[C@@H]1c1nn3ccc(-c4cnc([C@]5(O)C[C@@](C)(N)C5)nc4)cc3c12 [Example 208] | < 0.025
[2H]C([2H])([2H])N1C(=O)c2cccc(OC(F)F)c2[C@H]2C[C@@H]1c1nn3ccc(-c4cnc([C@]5(N)C[C@@](C)(O)C5)cn4)cc3c12 [Example 209] | < 0.025
[2H]C([2H])([2H])N1C(=O)c2cccc(OC(F)F)c2[C@H]2C[C@@H]1c1nn3ccc(-c4cnc([C@]5(N)C[C@@](C)(C#N)C5)cn4)cc3c12 [Example 210] | < 0.025
[2H]C([2H])([2H])N1C(=O)c2cccc(OC(F)F)c2[C@H]2C[C@@H]1c1nn3ccc(-c4ncc(C5(N)CCC5)cn4)cc3c12 [Example 211] | < 0.025
